# Earlier results in patent publication US11596701B2, “Disinfection method using a disinfection agent formed in situ by reaction of H2O2 and NO2-” (LEIBNIZ-INSTITUT FÜR PLASMAFORSCHUNG UND TECHNOLOGIE E.V., priority 2018, dated 2023).
# Read-outs that look alike come from different tables or passages of the source.
# Conditions: room temperature
substance,measurement,setting,value
peroxynitric acid,half-life,"Lammel et al., 1990",about 3 minutes
same,half-life,as stated in US 20170172149,about 10 minutes
